Calls of active or inactive are those of the source.

Common to all, as to assay type: functional
Assay [1] addresses T1, High affinity choline transporter 1 (Homo sapiens, UniProt Q9GZV3).
T1 sequence (Q9GZV3 whole entry): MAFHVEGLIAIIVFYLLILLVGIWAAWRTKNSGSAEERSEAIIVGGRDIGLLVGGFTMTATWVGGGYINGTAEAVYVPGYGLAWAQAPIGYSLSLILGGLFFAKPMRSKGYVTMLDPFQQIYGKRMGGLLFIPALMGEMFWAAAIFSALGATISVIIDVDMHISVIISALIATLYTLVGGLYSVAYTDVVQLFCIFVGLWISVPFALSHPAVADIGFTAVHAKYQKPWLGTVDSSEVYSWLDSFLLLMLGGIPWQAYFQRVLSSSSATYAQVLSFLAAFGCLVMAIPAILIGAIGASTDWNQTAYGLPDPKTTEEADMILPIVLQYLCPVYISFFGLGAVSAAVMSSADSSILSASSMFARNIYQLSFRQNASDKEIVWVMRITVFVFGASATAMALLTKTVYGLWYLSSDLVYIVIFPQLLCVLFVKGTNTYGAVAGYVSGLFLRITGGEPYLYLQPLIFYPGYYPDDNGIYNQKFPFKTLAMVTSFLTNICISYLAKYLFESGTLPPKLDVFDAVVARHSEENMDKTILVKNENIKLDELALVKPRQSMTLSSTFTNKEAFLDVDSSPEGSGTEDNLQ
Description: human choline transporter blockers, potency – cell-based, 5-point CRC, membrane potential dye, dose response (AID 504840).

In assay [2] the target is T1, High affinity choline transporter 1. Kind of assay: human choline transporter blockers, potency – cell-based, 10-point CRC, membrane potential dye, dose response (AID 588401).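 Note: membrane potential dye fluorescence of choline-evoked depolarization via CHT.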
The target of assay [3] is T2, Polyadenylate-binding protein 1 (Homo sapiens, UniProt P11940). Kind of assay: MLLE binding blockers, Cy5 peptide tracer – biochemical, fluorescence polarization, Cy5-PAM2 peptide, secondary, miRNA deadenylation inhibitor project, dose response (AID 602260). As to conditions: read-out: IC50_Mean. In general terms: In fluorescence polarisation assays a small probe gives low polarisation when free and higher when bound to something large.

Assay [4] concerns the target T2, Polyadenylate-binding protein 1. Description: MLLE domain peptide-binding blockers, IC50 – biochemical, fluorescence polarization, FITC-PAM2 peptide, dose response (AID 602259). The following applies: read-out: IC50_Mean.
For assay [5], the target named is Protein disulfide-isomerase (Homo sapiens, UniProt P07237). Description: inhibition of PDI-driven insulin aggregation – biochemical, turbidity, absorbance, cherry-picked samples, dose response (AID 602350).
In assay [6] the target is Multidrug resistance protein CDR2 (Candida albicans (strain SC5314 / ATCC MYA-2876) (Yeast), UniProt P78595). Kind of assay: inhibition of Nile Red efflux via Candida CDR2 – S. cerevisiae AD1-8u, singleplex, Cherry Pick1 hits, dose response (AID 588604).
Assay [7] has as its target T1, High affinity choline transporter 1. Description: human choline transporter potentiators, potency – cell-based, 10-point CRC, membrane potential dye, dose response (AID 602376).
For assay [8], the target named is Melanin-concentrating hormone receptor 1 (Homo sapiens, UniProt Q99705). Kind of assay: Late-stage fluorescence-based counterscreen for antagonists of the G-protein coupled receptor 7 (GPR7): cell-based dose response assay to identify antagonists of the melanin-concentrating hormone receptor 1 (MCHR1) Set 5. A general note: A counterscreen serves to expose hits that act by an unwanted route or on another target.

Assay [9] addresses Ribosomal protein S6 kinase alpha-3 (Homo sapiens, UniProt P51812).
The target of assay [10] is Ribosomal protein S6 kinase beta-1 (Homo sapiens, UniProt P23443).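 Note: measured as one member of a kinome-wide profiling panel.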
Assay [11] addresses MAP kinase-activated protein kinase 2 (Homo sapiens, UniProt P49137).
Assay [12] deals with Glycogen synthase kinase-3 beta (Homo sapiens, UniProt P49841).
For assay [13], the target named is T3, DNA dC->dU-editing enzyme APOBEC-3G (Homo sapiens, UniProt Q9HC16). Description: inhibition of APOBEC3G ssDNA deamination – biochemical, fluorescence, single-stranded DNA substrate, SAR follow-up (AID 602136). The following applies: read-out: IC50_Mean.
Assay [14] has as its target T4, DNA dC->dU-editing enzyme APOBEC-3A (Homo sapiens, UniProt P31941). Description: SAR analysis of small molecule inhibitors of APOBEC3A DNA Deaminase via a fluorescence-based single-stranded DNA deaminase assay. As to conditions: read-out: IC50_Mean.
The target of assay [15] is ALK tyrosine kinase receptor (Homo sapiens, UniProt Q9UM73).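 Note: ALK tested as one member of a kinase panel screen.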
The target of assay [16] is Cyclin-dependent kinase 19 (Homo sapiens, UniProt Q9BWU1). Kind of assay: Navigating the Kinome. Panel member name: CDC2L6.
For assay [17], the target named is T4, DNA dC->dU-editing enzyme APOBEC-3A. Description: SAR analysis of small molecule inhibitors of APOBEC3A DNA Deaminase via a fluorescence-based single-stranded DNA deaminase assay - Set 2. The following applies: read-out: IC50_Mean.
Assay [18] addresses T3, DNA dC->dU-editing enzyme APOBEC-3G. Description: SAR analysis of small molecule inhibitors of APOBEC3G DNA Deaminase via a fluorescence-based single-stranded DNA deaminase assay - Set 2. The following applies: read-out: IC50_Mean.
For assay [19], the target named is Casein kinase I isoform alpha (Homo sapiens, UniProt P48729).
In assay [20] the target is Dual specificity protein kinase CLK4 (Homo sapiens, UniProt Q9HAZ1).
Assay [21] has as its target MAP/microtubule affinity-regulating kinase 4 (Homo sapiens, UniProt Q96L34). Kind of assay: Navigating the Kinome. Panel member name: MARK4.
In assay [22] the target is Tyrosine-protein kinase receptor TYRO3 (Homo sapiens, UniProt Q06418).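 Note: TYRO3 value obtained as one member of a kinome-wide profiling panel.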
The target in assay [23] is Serine/threonine-protein kinase D3 (Homo sapiens, UniProt O94806).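 Note: determined within a kinase panel screen, with PRKCN as the panel member.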
The target of assay [24] is Death-associated protein kinase 3 (Homo sapiens, UniProt O43293).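 Note: measured as one member of a kinome-wide profiling panel.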
The target of assay [25] is Serine/threonine-protein kinase TAO1 (Homo sapiens, UniProt Q7L7X3).
Assay [26] addresses Proto-oncogene tyrosine-protein kinase ROS (Homo sapiens, UniProt P08922).
Assay [27] deals with MAP/microtubule affinity-regulating kinase 3 (Homo sapiens, UniProt P27448).
Assay [28] concerns the target Glycogen synthase kinase-3 alpha (Homo sapiens, UniProt P49840).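 Note: GSK3A result taken from a broad kinome-wide kinase panel.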
In assay [29] the target is Mitogen-activated protein kinase kinase kinase kinase 2 (Homo sapiens, UniProt Q12851).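 Note: measured as one member of a kinome-wide kinase panel, with MAP4K2 as the panel entry.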
Assay [30] has as its target Serine/threonine-protein kinase SIK2 (Homo sapiens, UniProt Q9H0K1). Description: Navigating the Kinome. Panel member name: SIK2.
Assay [31] addresses Dual specificity tyrosine-phosphorylation-regulated kinase 1B (Homo sapiens, UniProt Q9Y463). Kind of assay: Navigating the Kinome. Panel member name: DYRK1B.
The target in assay [32] is Maternal embryonic leucine zipper kinase (Homo sapiens, UniProt Q14680).
For assay [33], the target named is BDNF/NT-3 growth factors receptor (Homo sapiens, UniProt Q16620).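 Note: NTRK2 measured as one member of a broad kinome-wide kinase profiling panel.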
In assay [34] the target is Macrophage-stimulating protein receptor (Homo sapiens, UniProt Q04912). Description: Navigating the Kinome. Panel member name: MST1R.
Assay [35] has as its target Leukocyte tyrosine kinase receptor (Homo sapiens, UniProt P29376). Kind of assay: Navigating the Kinome. Panel member name: LTK.

T2 sequence (P11940 whole entry): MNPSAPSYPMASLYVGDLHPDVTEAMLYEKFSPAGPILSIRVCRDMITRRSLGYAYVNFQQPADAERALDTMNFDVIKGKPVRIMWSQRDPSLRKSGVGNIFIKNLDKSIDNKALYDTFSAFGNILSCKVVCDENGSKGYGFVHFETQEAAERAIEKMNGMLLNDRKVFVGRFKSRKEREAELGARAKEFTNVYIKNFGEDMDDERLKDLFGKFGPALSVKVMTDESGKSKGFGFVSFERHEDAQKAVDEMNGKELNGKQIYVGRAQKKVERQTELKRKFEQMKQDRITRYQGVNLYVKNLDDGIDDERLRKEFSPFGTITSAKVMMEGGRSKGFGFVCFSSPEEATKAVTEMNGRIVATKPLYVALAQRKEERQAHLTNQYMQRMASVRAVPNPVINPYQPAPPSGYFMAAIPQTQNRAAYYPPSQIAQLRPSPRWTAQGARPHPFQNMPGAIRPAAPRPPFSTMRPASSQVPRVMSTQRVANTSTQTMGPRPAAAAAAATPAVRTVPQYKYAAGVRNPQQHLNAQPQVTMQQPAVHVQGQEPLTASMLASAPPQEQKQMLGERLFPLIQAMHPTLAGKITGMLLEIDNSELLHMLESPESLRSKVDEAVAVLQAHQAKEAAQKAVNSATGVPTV
T4 sequence (P31941 whole entry): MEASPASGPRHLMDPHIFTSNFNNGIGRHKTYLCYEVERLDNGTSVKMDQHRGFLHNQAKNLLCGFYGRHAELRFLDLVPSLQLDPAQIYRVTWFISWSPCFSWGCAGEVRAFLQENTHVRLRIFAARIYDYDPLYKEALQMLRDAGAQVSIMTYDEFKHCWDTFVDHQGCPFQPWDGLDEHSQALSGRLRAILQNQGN
T3 sequence (Q9HC16 whole entry): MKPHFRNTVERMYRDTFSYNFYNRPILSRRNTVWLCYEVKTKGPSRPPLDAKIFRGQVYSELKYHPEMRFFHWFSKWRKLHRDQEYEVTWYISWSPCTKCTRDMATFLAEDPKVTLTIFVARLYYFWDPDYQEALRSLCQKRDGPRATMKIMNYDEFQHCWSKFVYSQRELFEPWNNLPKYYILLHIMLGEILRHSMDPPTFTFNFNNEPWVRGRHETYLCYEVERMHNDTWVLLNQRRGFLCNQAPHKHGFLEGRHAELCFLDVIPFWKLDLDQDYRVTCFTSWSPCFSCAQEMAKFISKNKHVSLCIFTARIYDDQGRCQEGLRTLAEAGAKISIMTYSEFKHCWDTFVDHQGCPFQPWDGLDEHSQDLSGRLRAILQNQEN
Sequence of MAP/microtubule affinity-regulating kinase 4 (Q96L34 whole entry): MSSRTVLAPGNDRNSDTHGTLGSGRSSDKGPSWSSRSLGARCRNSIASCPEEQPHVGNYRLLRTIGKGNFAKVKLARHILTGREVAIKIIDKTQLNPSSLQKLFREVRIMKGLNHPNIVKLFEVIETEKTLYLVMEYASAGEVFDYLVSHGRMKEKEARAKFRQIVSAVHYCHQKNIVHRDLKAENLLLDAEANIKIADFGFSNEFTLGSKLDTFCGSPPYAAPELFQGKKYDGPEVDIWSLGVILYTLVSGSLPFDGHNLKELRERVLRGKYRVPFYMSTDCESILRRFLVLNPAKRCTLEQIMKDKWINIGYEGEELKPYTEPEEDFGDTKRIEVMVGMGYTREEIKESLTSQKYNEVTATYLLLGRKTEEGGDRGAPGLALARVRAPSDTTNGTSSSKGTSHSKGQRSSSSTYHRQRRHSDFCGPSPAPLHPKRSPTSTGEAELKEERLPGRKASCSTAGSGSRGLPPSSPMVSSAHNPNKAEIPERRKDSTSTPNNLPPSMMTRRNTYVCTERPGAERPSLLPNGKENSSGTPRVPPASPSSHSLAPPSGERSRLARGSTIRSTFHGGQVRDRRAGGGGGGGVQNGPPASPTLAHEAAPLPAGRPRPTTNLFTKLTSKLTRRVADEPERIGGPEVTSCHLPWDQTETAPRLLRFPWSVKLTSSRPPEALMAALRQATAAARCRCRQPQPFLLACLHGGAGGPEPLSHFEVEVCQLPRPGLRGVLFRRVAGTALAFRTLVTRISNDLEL
Sequence of Death-associated protein kinase 3 (O43293 whole entry): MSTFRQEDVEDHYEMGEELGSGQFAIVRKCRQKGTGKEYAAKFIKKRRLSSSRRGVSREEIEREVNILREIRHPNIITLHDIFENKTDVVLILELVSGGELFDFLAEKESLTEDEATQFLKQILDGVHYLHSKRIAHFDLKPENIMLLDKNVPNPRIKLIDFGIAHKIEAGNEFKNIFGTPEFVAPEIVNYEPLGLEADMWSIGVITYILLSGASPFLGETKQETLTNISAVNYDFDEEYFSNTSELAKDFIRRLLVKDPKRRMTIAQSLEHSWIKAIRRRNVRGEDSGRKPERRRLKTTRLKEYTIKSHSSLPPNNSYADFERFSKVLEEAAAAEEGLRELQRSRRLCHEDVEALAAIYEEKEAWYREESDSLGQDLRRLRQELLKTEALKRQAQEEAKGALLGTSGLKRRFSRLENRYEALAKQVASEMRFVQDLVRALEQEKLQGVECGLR
Sequence of Glycogen synthase kinase-3 alpha (P49840 whole entry): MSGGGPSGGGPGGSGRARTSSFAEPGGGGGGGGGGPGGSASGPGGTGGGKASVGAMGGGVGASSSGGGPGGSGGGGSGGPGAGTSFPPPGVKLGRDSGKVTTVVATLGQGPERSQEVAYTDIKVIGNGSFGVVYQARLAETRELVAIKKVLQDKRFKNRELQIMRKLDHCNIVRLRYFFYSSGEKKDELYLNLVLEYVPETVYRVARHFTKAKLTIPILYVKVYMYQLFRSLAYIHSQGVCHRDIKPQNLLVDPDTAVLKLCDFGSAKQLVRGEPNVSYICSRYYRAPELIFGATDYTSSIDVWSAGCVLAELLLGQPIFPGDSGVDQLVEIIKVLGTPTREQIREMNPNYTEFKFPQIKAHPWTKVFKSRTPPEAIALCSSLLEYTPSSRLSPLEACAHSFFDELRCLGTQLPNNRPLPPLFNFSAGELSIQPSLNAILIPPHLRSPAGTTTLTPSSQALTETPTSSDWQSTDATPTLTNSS
Sequence of MAP/microtubule affinity-regulating kinase 3 (P27448 whole entry): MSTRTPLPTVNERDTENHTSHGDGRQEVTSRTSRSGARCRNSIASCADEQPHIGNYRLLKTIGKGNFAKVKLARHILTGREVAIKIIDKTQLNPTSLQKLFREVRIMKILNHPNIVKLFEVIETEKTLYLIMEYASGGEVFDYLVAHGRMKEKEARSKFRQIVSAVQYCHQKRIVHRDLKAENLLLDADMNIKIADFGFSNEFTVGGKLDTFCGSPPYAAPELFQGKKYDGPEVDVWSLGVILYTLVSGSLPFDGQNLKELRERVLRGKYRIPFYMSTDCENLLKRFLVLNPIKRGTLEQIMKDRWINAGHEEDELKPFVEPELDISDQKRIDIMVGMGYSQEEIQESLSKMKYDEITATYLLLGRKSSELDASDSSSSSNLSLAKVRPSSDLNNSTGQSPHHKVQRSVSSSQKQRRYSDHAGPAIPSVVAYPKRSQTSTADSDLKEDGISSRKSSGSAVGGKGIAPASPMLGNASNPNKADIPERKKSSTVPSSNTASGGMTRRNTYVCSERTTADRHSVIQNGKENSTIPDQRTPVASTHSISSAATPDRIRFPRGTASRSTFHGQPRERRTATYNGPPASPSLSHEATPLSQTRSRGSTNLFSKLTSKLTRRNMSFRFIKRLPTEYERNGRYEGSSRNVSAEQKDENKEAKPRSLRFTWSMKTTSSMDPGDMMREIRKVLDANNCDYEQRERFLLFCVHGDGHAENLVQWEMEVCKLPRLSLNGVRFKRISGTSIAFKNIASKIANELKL
Sequence of Dual specificity tyrosine-phosphorylation-regulated kinase 1B (Q9Y463 whole entry): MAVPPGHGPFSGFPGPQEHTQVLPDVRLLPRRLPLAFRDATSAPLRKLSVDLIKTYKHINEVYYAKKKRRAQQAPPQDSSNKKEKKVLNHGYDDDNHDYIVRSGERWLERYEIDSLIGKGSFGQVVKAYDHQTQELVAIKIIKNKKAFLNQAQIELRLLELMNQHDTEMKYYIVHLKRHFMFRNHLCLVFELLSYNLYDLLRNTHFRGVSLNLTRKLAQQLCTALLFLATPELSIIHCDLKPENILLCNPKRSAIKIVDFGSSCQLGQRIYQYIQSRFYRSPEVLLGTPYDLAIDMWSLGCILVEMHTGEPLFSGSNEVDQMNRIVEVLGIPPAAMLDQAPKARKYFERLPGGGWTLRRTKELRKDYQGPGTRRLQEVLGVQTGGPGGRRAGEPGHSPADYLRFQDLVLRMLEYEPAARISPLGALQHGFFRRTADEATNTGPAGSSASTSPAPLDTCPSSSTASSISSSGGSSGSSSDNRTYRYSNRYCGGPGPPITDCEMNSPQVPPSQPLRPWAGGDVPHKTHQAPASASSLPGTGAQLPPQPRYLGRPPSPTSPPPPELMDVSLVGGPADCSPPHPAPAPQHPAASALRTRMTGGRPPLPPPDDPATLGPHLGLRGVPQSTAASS
Sequence of Cyclin-dependent kinase 19 (Q9BWU1 whole entry): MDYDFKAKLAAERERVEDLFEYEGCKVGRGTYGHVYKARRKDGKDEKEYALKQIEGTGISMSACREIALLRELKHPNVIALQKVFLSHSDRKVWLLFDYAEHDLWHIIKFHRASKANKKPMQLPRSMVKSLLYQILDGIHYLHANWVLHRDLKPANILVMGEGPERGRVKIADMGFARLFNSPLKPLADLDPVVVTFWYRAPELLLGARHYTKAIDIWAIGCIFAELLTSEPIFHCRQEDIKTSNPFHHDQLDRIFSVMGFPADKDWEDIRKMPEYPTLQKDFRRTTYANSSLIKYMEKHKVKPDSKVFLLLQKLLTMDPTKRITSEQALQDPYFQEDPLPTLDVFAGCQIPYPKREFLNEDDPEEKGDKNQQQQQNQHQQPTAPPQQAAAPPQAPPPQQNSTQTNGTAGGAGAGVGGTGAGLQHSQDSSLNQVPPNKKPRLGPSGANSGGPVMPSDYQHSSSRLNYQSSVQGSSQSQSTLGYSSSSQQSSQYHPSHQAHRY

Regarding `S=C(NCc1ccccn1)Nc1ccc(Br)cc1Cl`, the IC50 in assay [1] was 3840 nM (active); in [2] it was 1580 nM (active); in assay [3] it was > 66000 nM (inactive); in [4], > 66000 nM (inactive).

What is called AC50 is the midpoint of the concentration-response curve, whichever way the signal moves. As for `CCOc1cc(N2CCOCC2)c(OCC)cc1NC(=O)COC(=O)[C@H](Cc1c[nH]c2ccccc12)NC(C)=O`, the AC50 in assay [5] was 19500 nM (active).

By EC50 is commonly meant the concentration giving half of the maximal effect. As to `COc1ccc(-c2nc3ccccc3c(=O)n2CCOc2ccc(C)cc2C)cc1`, the EC50 in [6] was 15200 nM (active).

Consider `CCCCn1c(N)c(N(CCC(C)C)C(=O)C2CCCN(C(=O)c3ccc(Cl)cc3)C2)c(=O)[nH]c1=O` (stereo not given), for which, in assay [7], the EC50 is 21300 nM (active).

In the case of `COc1ccc(Oc2c(Cl)cnn(Cc3cccc4ccccc34)c2=O)c(F)c1`, the IC50 in assay [8] was 6240 nM (active).

Broadly, the Ki is the equilibrium dissociation constant of an inhibitor or competing ligand from its target. Regarding `CCOC(=O)c1c(NC(=O)C2C(C)(C)C2(C)C)sc2cnccc12`, the Ki in assay [9] was 6310 nM (active); in [10], 2510 nM (active); in assay [11], 6310 nM (active); in assay [12], 3980 nM (active).

For the compound `CCCCn1c(=O)c2ccccc2n2c(SCCS(=O)(=O)c3ccccc3)nnc12`, the IC50 in [13] and in assay [14] was > 99000 nM (inactive) in each case.

`Cn1cc(Nc2ncc(Cl)c(Nc3ccccc3)n2)cn1`: the Ki in assay [15] was 1580 nM (active); in [16], 2000 nM (active).

As for `CCc1nc2sc3c(c2c2nnc(S)n12)CCC(C)C3` (stereo not given), the IC50 in assay [17] and in assay [18] was > 99000 nM (inactive) each time.

Regarding `Nc1nnc(-c2ccccc2)c(N)n1`, the Ki in assay [19] was 20000 nM (active); in [20], 39800 nM (active).

Turning to `Nc1nc(Nc2ccc(S(N)(=O)=O)cc2)nn1C(=O)c1c(F)cccc1F` [JNJ-7706621], the Ki is 100 nM (active) in [21]; 794 nM (active) in assay [22]; 2000 nM (active) in assay [23]; 2000 nM (active) in assay [24]; 25.1 nM (active) in assay [25]; 501 nM (active) in [26]. Also, the Ki in assay [27] is 794 nM (active); in [28] it was 158 nM (active); in assay [29], 1580 nM (active); in assay [30], 251 nM (active); in [31], > 2000 nM (inactive); in [32] it was 631 nM (active). The results for the Ki in assay [33], in assay [34] and in assay [35] were 2000 nM (active), 100 nM (active) and > 1580 nM (inactive), respectively.

The values above are taken from ChEMBL document CHEMBL1201862, “PubChem BioAssay data set” (2004).
